Measurements from ChEMBL document CHEMBL3885861, “Open TG-GATES”.

Organism: Rattus norvegicus
Assay: Open TG-GATES - Regimen: Daily Repeat
Type: toxicity, organism-based, Sprague-Dawley
Parameters: regimen Daily Repeat, gender Male, age 6 weeks
Details: in vivo, po, 100 mg/kg, […], route gavage, dose level Middle; for KIDNEY_L / KIDNEY_R / KIDNEY_TOTAL: tissue Kidney; for LIVER: tissue Liver; for A/G / ALP / ALT / AST / BUN / CRE / Ca / Cl / DBIL / GLC / IP / K / LDH / Na / PL / RALB / TBIL / TC / TG / TP / gamma-GTP: tissue Plasma

ClC(Cl)(Cl)Cl [CARBON TETRACHLORIDE]
Lym (tissue Blood, time 28 day): 78.4%
MCH (tissue Blood, time 28 day): 18.3 pg
MCHC (tissue Blood, time 28 day): 34.3%
MCV (tissue Blood, time 28 day): 53.4 fL
Mono (tissue Blood, time 28 day): 3.8%
Neu (tissue Blood, time 28 day): 16.8%
PT (tissue Blood, time 28 day): 12.5 s
Plat (tissue Blood, time 28 day): 111.2 x10_4/uL
RBC (tissue Blood, time 28 day): 801.8 x10_4/ul
Ret (tissue Blood, time 28 day): 3%
WBC (tissue Blood, time 28 day): 148.3 x10_2/uL
KIDNEY_L (time 7 day): 1.1 g
KIDNEY_R (time 7 day): 1.1 g
KIDNEY_TOTAL (time 7 day): 2.2 g
KIDNEY_L (time 14 day): 1.1 g
KIDNEY_R (time 14 day): 1.2 g
KIDNEY_TOTAL (time 14 day): 2.3 g
KIDNEY_L (time 28 day): 1.3 g
KIDNEY_R (time 28 day): 1.3 g
KIDNEY_TOTAL (time 28 day): 2.6 g
LIVER (time 7 day): 13.2 g
LIVER (time 14 day): 15.1 g
LIVER (time 28 day): 18.2 g
A/G (time 7 day): 1.4
ALP (time 7 day): 942.6 IU/L
ALT (time 7 day): 53.4 IU/L
AST (time 7 day): 113.4 IU/L
BUN (time 7 day): 15.4 mg/dL
CRE (time 7 day): 0.4 mg/dL
Ca (time 7 day): 10.6 mg/dL
Cl (time 7 day): 104.4 meq/L
DBIL (time 7 day): 0.074 mg/dL
GLC (time 7 day): 193.8 mg/dL
IP (time 7 day): 7.6 mg/dL
K (time 7 day): 4 meq/L
LDH (time 7 day): 231.2 IU/L
Na (time 7 day): 141 meq/L
PL (time 7 day): 142.8 mg/dL
RALB (time 7 day): 3.2 g/dL
TBIL (time 7 day): 0.1 mg/dL
TC (time 7 day): 63.4 mg/dL
TG (time 7 day): 62.6 mg/dL
TP (time 7 day): 5.5 g/dL
gamma-GTP (time 7 day): 1.4 IU/L
A/G (time 14 day): 1.6
ALP (time 14 day): 1040.6 IU/L
ALT (time 14 day): 106 IU/L
AST (time 14 day): 165.4 IU/L
BUN (time 14 day): 15.2 mg/dL
CRE (time 14 day): 0.4 mg/dL
Ca (time 14 day): 10.7 mg/dL
Cl (time 14 day): 104 meq/L
DBIL (time 14 day): 0.06 mg/dL
GLC (time 14 day): 184.2 mg/dL
IP (time 14 day): 7.6 mg/dL
K (time 14 day): 3.8 meq/L
LDH (time 14 day): 281.4 IU/L
Na (time 14 day): 142 meq/L
PL (time 14 day): 131.2 mg/dL
RALB (time 14 day): 3.5 g/dL
TBIL (time 14 day): 0.1 mg/dL
TC (time 14 day): 64.4 mg/dL
TG (time 14 day): 38.8 mg/dL
TP (time 14 day): 5.7 g/dL
gamma-GTP (time 14 day): 0.8 IU/L
A/G (time 28 day): 1.4
ALP (time 28 day): 760.2 IU/L
ALT (time 28 day): 103.2 IU/L
AST (time 28 day): 131 IU/L
BUN (time 28 day): 16 mg/dL
CRE (time 28 day): 0.5 mg/dL
Ca (time 28 day): 10.3 mg/dL
Cl (time 28 day): 102.6 meq/L
DBIL (time 28 day): 0.072 mg/dL
GLC (time 28 day): 203.6 mg/dL
IP (time 28 day): 6.8 mg/dL
K (time 28 day): 3.8 meq/L
LDH (time 28 day): 390 IU/L
Na (time 28 day): 140.8 meq/L
PL (time 28 day): 122.8 mg/dL
RALB (time 28 day): 3.4 g/dL
TBIL (time 28 day): 0.1 mg/dL
TC (time 28 day): 57 mg/dL
TG (time 28 day): 32.2 mg/dL
TP (time 28 day): 5.9 g/dL
gamma-GTP (time 28 day): 1.2 IU/L
